A short description of one assay: DPPH radical scavenging. Particulars: for IC50: read-out: DPPH (IC50 value in μM). In general terms: The DPPH test is a chemical assay of radical scavenging.
A further assay deals with T1, α-amylase (Homo sapiens, UniProt P04746).
T1 sequence (P04746 16-511): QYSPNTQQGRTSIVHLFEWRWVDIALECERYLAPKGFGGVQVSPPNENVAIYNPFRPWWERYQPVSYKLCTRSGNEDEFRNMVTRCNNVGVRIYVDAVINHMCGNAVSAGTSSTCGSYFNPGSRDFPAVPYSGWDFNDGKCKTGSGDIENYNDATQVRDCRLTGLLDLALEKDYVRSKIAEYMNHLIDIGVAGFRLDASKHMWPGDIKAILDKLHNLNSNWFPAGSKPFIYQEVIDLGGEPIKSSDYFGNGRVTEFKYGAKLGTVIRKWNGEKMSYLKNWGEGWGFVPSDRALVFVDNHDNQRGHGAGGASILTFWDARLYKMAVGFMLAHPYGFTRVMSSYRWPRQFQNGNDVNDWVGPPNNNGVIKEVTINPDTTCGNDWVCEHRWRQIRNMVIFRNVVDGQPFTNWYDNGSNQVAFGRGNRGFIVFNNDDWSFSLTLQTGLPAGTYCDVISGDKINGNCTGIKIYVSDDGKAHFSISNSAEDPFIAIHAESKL
The experiment in a line: biochemical.

For `CC(=O)N1N=C(c2ccc(Cl)cc2)CC1c1ccccc1O` (stereo not drawn) [Compound 20, 1-(3-(4-Chlorophenyl)-5-(2-hydroxyphenyl)-4,5-dihydro-1H-pyrazol-1-yl)ethanone], the “DPPH (IC50 value in μM)” value in “DPPH radical scavenging” is listed as “potential antioxidant activity”. Further, the IC50 in “DPPH radical scavenging” was found to be 99.6 µM; against α-amylase, 590 µM.

As for `CC(=O)N1N=C(c2ccc(Cl)cc2)CC1c1ccccc1` (stereo not drawn) [Compound 19, 1-(3-(4-Chlorophenyl)-5-phenyl-4,5-dihydro-1H-pyrazol-1-yl)ethanone], in the assay “DPPH radical scavenging”, the IC50 was found to be 172 µM.

`CC(=O)N1N=C(c2ccc(Cl)cc2)CC1c1cccc([N+](=O)[O-])c1` (stereo not drawn) [Compound 22, 1-(3-(4-Chlorophenyl)-5-(3-nitrophenyl)-4,5-dihydro-1H-pyrazol-1-yl)ethanone]: the IC50 worked out at 220 µM in the assay “DPPH radical scavenging” and 61.5 µM on α-amylase.

With `CC(=O)N1N=C(c2ccc(Cl)cc2)CC1c1ccco1` (stereo not drawn) [Compound 21, 1-(3-(4-Chlorophenyl)-5-(furan-2-yl)-4,5-dihydro-1H-pyrazol-1-yl)ethanone], the results for the IC50 in the assay “DPPH radical scavenging” and at α-amylase were 580 µM and 262 µM, respectively.

Regarding `CC(=O)N1N=C(c2ccc(O)cc2)CC1c1ccco1` (stereo not drawn) [Compound 8, 1-(5-(Furan-2-yl)-3-(4-hydroxyphenyl)-4,5-dihydro-1H-pyrazol-1-yl)ethanone], in “DPPH radical scavenging”, the “DPPH (IC50 value in μM)” value is “potential antioxidant activity” and the IC50 turned out to be 106 µM. At α-amylase, this compound showed an IC50 of 1.07 µM.

In the case of `CC(=O)N1N=C(c2ccc(O)cc2)CC1c1ccc(C)cc1` (stereo not drawn) [Compound 12, 1-(3-(4-Hydroxyphenyl)-5-(p-tolyl)-4,5-dihydro-1H-pyrazol-1-yl)ethanone], in the assay “DPPH radical scavenging”, the “DPPH (IC50 value in μM)” value is listed as “potential antioxidant activity” and the IC50 was found to be 151 µM. Besides, half-maximal inhibition against α-amylase (IC50) was put at 400 µM.

For the compound `CC(=O)N1N=C(c2ccc(Cl)cc2)CC1c1ccccn1` (stereo not drawn) [Compound 18, 1-(3-(4-Chlorophenyl)-5-(pyridin-2-yl)-4,5-dihydro-1H-pyrazol-1-yl)ethanone], the values for the IC50 in the assay “DPPH radical scavenging” and against α-amylase were 199 µM and 281 µM, respectively.

Turning to `COc1ccc(C2=NN(C(C)=O)C(c3ccco3)C2)cc1` (stereo not drawn) [Compound 6, 1-(5-(Furan-2-yl)-3-(4-methoxyphenyl)-4,5-dihydro-1H-pyrazol-1-yl)ethanone], the IC50 was 554 µM in the assay “DPPH radical scavenging” and 811 µM at α-amylase.

`CC(=O)N1N=C(c2ccc(O)cc2)CC1c1cccc([N+](=O)[O-])c1` (stereo not drawn) [Compound 9, 1-(3-(4-Hydroxyphenyl)-5-(3-nitrophenyl)-4,5-dihydro-1H-pyrazol-1-yl)ethanone]: the values for the IC50 in the assay “DPPH radical scavenging” and at α-amylase were 161 µM and 632 µM, respectively.

As to `CC(=O)N1N=C(c2ccc(Cl)cc2)CC1c1cccs1` (stereo not drawn) [Compound 15, 1-(3-(4-Chlorophenyl)-5-(thiophen-2-yl)-4,5-dihydro-1H-pyrazol-1-yl)ethanone], the IC50 in “DPPH radical scavenging” is 383 µM; at α-amylase, 425 µM.

Turning to `COc1ccc(C2CC(c3ccc(Cl)cc3)=NN2C(C)=O)cc1O` (stereo not drawn) [Compound 16, 1-(3-(4-Chlorophenyl)-5-(3-hydroxy-4-methoxyphenyl)-4,5-dihydropyrazol-1-yl)ethanone], the figures for the IC50 in the assay “DPPH radical scavenging” and on α-amylase were 56.3 µM and 62.5 µM, respectively.

`COc1ccc(C2CC(c3ccc(O)cc3)=NN2C(C)=O)cc1` (stereo not drawn) [Compound 11, 1-(3-(4-Hydroxyphenyl)-5-(4-methoxyphenyl)-4,5-dihydro-1H-pyrazol-1-yl)ethanone]: in the assay “DPPH radical scavenging”, the “DPPH (IC50 value in μM)” value was “potential antioxidant activity” and the IC50 came to 53.5 µM. Further, at α-amylase, the IC50 was 0.551 µM.

Regarding `CC(=O)N1N=C(c2ccccc2)CC1c1ccccn1` (stereo not drawn) [Compound 4, 1-(3-Phenyl-5-(pyridin-2-yl)-4,5-dihydro-1H-pyrazol-1-yl)ethanone], the IC50 was determined as 914 µM in the assay “DPPH radical scavenging” and 663 µM at α-amylase.

Consider `CC(=O)N1N=C(c2ccccc2)CC1c1ccccc1O` (stereo not drawn) [Compound 1, 1-(5-(2-Hydroxyphenyl)-3-phenyl-4,5-dihydro-1H-pyrazol-1-yl)ethanone], for which, in “DPPH radical scavenging”, the “DPPH (IC50 value in μM)” value is “potential antioxidant activity” and the IC50 is 84.2 µM. Moreover, the IC50 against α-amylase is 188 µM.

`CC(=O)N1N=C(c2ccc(O)cc2)CC1c1ccc(N(C)C)cc1` (stereo not drawn) [Compound 10, 1-(5-(4-(Dimethylamino)phenyl)-3-(4-hydroxyphenyl)-4,5-dihydropyrazol-1-yl)ethanone]: in “DPPH radical scavenging”, the “DPPH (IC50 value in μM)” value is on record as “potential antioxidant activity” and the IC50 turned out to be 41.1 µM. This compound registered an IC50 against α-amylase of 388 µM.

Take `CC(=O)N1N=C(c2ccccc2)CC1c1cccc([N+](=O)[O-])c1` (stereo not drawn) [Compound 3, 1-(5-(3-Nitrophenyl)-3-phenyl-4,5-dihydro-1H-pyrazol-1-yl)ethanone]: the IC50 was found to be 205 µM in the assay “DPPH radical scavenging” and 604 µM at α-amylase.

As for `COc1ccc(C2CC(c3ccc(Cl)cc3)=NN2C(C)=O)cc1` (stereo not drawn) [Compound 13, 1-(3-(4-Chlorophenyl)-5-(4-methoxyphenyl)-4,5-dihydro-1H-pyrazol-1-yl)ethanone], in the assay “DPPH radical scavenging”, the “DPPH (IC50 value in μM)” value is recorded as “potential antioxidant activity” and the IC50 came to 131 µM.

For the compound `CC(=O)N1N=C(c2ccccc2)CC1c1ccc(C)cc1` (stereo not drawn) [Compound 5, 1-(3-Phenyl-5-(p-tolyl)-4,5-dihydro-1H-pyrazol-1-yl)ethanone], in the assay “DPPH radical scavenging”, the “DPPH (IC50 value in μM)” value is “potential antioxidant activity”. Further, the values for the half-maximal inhibitory concentration (IC50) in the assay “DPPH radical scavenging” and on α-amylase were 30 µM and 35.5 µM, respectively.

Consider `CC(=O)N1N=C(c2ccc(Cl)cc2)CC1c1ccc(C)cc1` (stereo not drawn) [Compound 14, 1-(3-(4-Chlorophenyl)-5-(p-tolyl)-4,5-dihydro-1H-pyrazol-1-yl)ethanone], for which the IC50 in the assay “DPPH radical scavenging” worked out at 179 µM.

In the case of `CC(=O)N1N=C(c2ccc(Cl)cc2)CC1c1cccc(O)c1` (stereo not drawn) [Compound 17, 1-(3-(4-Chlorophenyl)-5-(3-hydroxyphenyl)-4,5-dihydropyrazol-1-yl)ethanone], the concentration for half-maximal inhibition (IC50) in the assay “DPPH radical scavenging” worked out at 160 µM; against α-amylase, 315 µM.

For `CC(=O)N1N=C(c2ccccc2)CC1c1ccco1` (stereo not drawn) [Compound 2, 1-(5-(Furan-2-yl)-3-phenyl-4,5-dihydro-1H-pyrazol-1-yl)ethanone], in the assay “DPPH radical scavenging”, the “DPPH (IC50 value in μM)” value is on record as “potential antioxidant activity”. Besides, the IC50 in “DPPH radical scavenging” stood at 85.1 µM; against α-amylase, 301 µM.

With `CC(=O)N1N=C(c2ccc(O)cc2)CC1c1ccccn1` (stereo not drawn) [Compound 7, 1-(3-(4-Hydroxyphenyl)-5-(pyridin-2-yl)-4,5-dihydro-1H-pyrazol-1-yl)ethanone], the “DPPH (IC50 value in μM)” value in the assay “DPPH radical scavenging” is recorded as “potential antioxidant activity”. Besides, the IC50 in “DPPH radical scavenging” is 69 µM; against α-amylase, 196 µM.

What is called IC50 is the concentration at which inhibition is half-maximal.

The values are drawn from publication PMC10268634 (ACS Omega, 2023).
